Assays:
Rv3722c [1] = molecular target: T1, Rv3722c (Mycobacterium tuberculosis, UniProt O69689)
Rv3722c [2] = molecular target: T1, Rv3722c; remark: listed apart in the source

T1 sequence (O69689 whole entry): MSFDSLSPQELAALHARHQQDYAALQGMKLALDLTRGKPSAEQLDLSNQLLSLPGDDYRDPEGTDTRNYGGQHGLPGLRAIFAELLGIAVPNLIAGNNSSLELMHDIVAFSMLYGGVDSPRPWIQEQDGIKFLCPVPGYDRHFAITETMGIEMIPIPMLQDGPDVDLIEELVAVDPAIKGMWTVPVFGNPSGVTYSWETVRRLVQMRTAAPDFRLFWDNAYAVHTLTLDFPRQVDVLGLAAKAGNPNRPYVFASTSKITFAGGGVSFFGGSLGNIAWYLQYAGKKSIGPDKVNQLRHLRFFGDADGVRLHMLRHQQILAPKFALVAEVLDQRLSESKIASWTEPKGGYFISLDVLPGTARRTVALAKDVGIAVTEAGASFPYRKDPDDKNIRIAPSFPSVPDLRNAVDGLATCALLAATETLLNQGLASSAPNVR

N[C@@H](CCC(=O)O)C(=O)O [Glu]
X-ray crystal structure, 2.6 Å (Rv3722c [1]): clear electron density of the amino acid in the active site

O=C(O)c1cc(O)c2ccccc2n1 [kynurenic acid]
X-ray crystal structure, 2.23 Å (Rv3722c [2]): or the final keto acid product kynurenic acid (Kyna)

Nc1ccccc1C(=O)C[C@H](N)C(=O)O [kynurenine]
X-ray crystal structure, 2.23 Å (Rv3722c [2]): chains were bound to either the external aldimine intermediate PLP-kynurenine (PLP-Kyn)

Cc1ncc(COP(=O)(O)O)c(C=O)c1O [pyridoxal phosphate]
X-ray crystal structure, 2.23 Å (Rv3722c [2]): the external aldimine intermediate PLP-kynurenine (PLP-Kyn)

— article PMC7181641, “Aspartate aminotransferase Rv3722c governs aspartate-dependent nitrogen metabolism in Mycobacterium tuberculosis” (Nature Communications, 2020)
